From patent US20220412957A1, “METHODS OF TREATING CANCER PATIENTS WITH RAS NODE OR RTK TARGETED THERAPEUTIC AGENTS” (Celcuity Inc., priority 2019, published 2022)

Columns and labels:
Assay type in all cases: cell-based, human
[1] = tested on: LPA1-initiated signaling in HER2-negative/PI3K//ERK/MEK/RAF/mTOR Wild-Type breast tumor cell samples; test: impedance biosensor cell adhesion test, LPA1 agonist with RAS node inhibitors (Example 4); parameters: unit not given here
Description: Tissue and cell samples: 28 HER2-negative/PI3K//ERK/MEK/RAF/mTOR Wild-Type breast tumor cell samples were studied. […] From these responses, the net amount of LPA1-initiated signaling involving PI3K-α, Class 1 PI3K-isoforms (pan-PI3K), Class 1 PI3K-isoforms and mTOR, Bcl-xL and Bcl-2, MEK, ERK, and RAF, individually and in combination, was quantified.
In this example, 14 of the 28 patient cell samples tested recorded output values with at least one of the targeted therapeutic(s) above 250. […] Five patients would be selected to receive treatment with gedatolisib, four would be selected to receive treatment with copanlisib, one patient would be selected to receive treatment with PLX7904, six patients would be selected to receive treatment with gedatolisib and PLX7904, seven patients would be selected to receive treatment with gedatolisib and ravoxertinib, nine patients would be selected to receive treatment with gedatolisib and trametinib, and 14 patients would be selected to receive treatment with gedatolisib and navitoclax.

[2] = tested on: LPA1-initiated signaling in HER2-negative/PI3K wild-type breast tumor cell samples; test: impedance biosensor cell adhesion test, LPA1 agonist with HER2 inhibitor (Example 2); parameters: scale not given here
Description: (§1) Tissue and cell samples: Eighteen HER2-negative/PI3K wild-type breast tumor cell samples were studied.
(§2) In this example, four of the eighteen patient cell samples tested recorded output values with the targeted therapeutic, neratinib, above 500. These four patients would thus be selected to receive treatment with neratinib, even though they are HER2-negative.

[3] = tested on: S1P-initiated signaling in HER2-negative/PI3K wild-type breast tumor cell samples; test: impedance biosensor cell adhesion test, S1P agonist with HER2 inhibitor (Example 2); parameters: scale not given here
Description: as §1, §2

[4] = sample C1838.01.155, cut-off 250
[5] = sample C1986.01.10, cut-off 250
[6] = sample C2090.01.14, cut-off 250
[7] = sample C2169.01.10, cut-off 250
[8] = sample C3091.01.13, cut-off 250
[9] = sample C3132.01.13, cut-off 250
[10] = sample C3311.01.10, cut-off 250
[11] = sample CL021.01.869, cut-off 250

With `COc1c(OCCCN2CCOCC2)ccc2c1N=C(NC(=O)c1cnc(N)nc1)N1CCN=C21` [Copanlisib, copanlisib] the output value ([1]; sample C1816.01.6, cut-off 250) was 374, the output value [1, 4] was 10 and the output value ([1]; sample C1918.01.5, cut-off 250) was 113. It also gave an output value [1, 5] of 170, an output value [1, 6] of 103 and an output value ([1]; sample C2167.01.4, cut-off 250) of 67. It also gave an output value [1, 7] of 199, an output value ([1]; sample C2483.01.6, cut-off 250) of 113 and an output value ([1]; sample C2693.01.2, cut-off 250) of 46. For the same compound, the output value ([1]; sample C2697.01.4, cut-off 250) was 103, the output value ([1]; sample C2729.01.4, cut-off 250) was 72 and the output value ([1]; sample C2748.01.4, cut-off 250) was 55. It also gave an output value ([1]; sample C2792.01.2, cut-off 250) of 98, an output value ([1]; sample C2794.01.9, cut-off 250) of 14 and an output value ([1]; sample C2868.01.6, cut-off 250) of 58. The output value ([1]; sample C2991.01.7, cut-off 250) was 310, the output value [1, 8] was 156 and the output value ([1]; sample C3101.01.6, cut-off 250) was 70. It also gave an output value [1, 9] of 38, an output value [1, 10] of 430 and an output value ([1]; sample C3337.01.6, cut-off 250) of 240. For the same compound, the output value ([1]; sample C3377.01.2, cut-off 250) was 86, the output value ([1]; sample C3507.01.5, cut-off 250) was 94 and the output value ([1]; sample C3730.01.9, cut-off 250) was 511. For the same compound, the output value ([1]; sample C3873.01.4, cut-off 250) was 199, the output value ([1]; sample C3957.01.6, cut-off 250) was 53 and the output value ([1]; sample C4005.01.2, cut-off 250) was 125. The output value [1, 11] was −259.

`C[C@H](Nc1ccc2c(c1)OCCn1cc(N3C(=O)OC[C@H]3C(F)F)nc1-2)C(N)=O` [GDC-0077] was tested, and the output value ([1]; sample C1816.01.6, cut-off 250) was −22, the output value [1, 4] was 38 and the output value ([1]; sample C1918.01.5, cut-off 250) was 38. The output value [1, 5] was 62, the output value [1, 6] was 36 and the output value ([1]; sample C2167.01.4, cut-off 250) was −12. The output value [1, 7] was 34, the output value ([1]; sample C2483.01.6, cut-off 250) was 113 and the output value ([1]; sample C2693.01.2, cut-off 250) was −24. The output value ([1]; sample C2697.01.4, cut-off 250) was 31, the output value ([1]; sample C2729.01.4, cut-off 250) was 34 and the output value ([1]; sample C2748.01.4, cut-off 250) was 65. The output value ([1]; sample C2792.01.2, cut-off 250) was 43, the output value ([1]; sample C2794.01.9, cut-off 250) was −89 and the output value ([1]; sample C2868.01.6, cut-off 250) was −24. For the same compound, the output value ([1]; sample C2991.01.7, cut-off 250) was 55, the output value [1, 8] was 60 and the output value ([1]; sample C3101.01.6, cut-off 250) was 0. The output value [1, 9] was 0, the output value [1, 10] was 14 and the output value ([1]; sample C3337.01.6, cut-off 250) was 139. For the same compound, the output value ([1]; sample C3377.01.2, cut-off 250) was −161, the output value ([1]; sample C3507.01.5, cut-off 250) was −58 and the output value ([1]; sample C3730.01.9, cut-off 250) was −113. The output value ([1]; sample C3873.01.4, cut-off 250) was 122, the output value ([1]; sample C3957.01.6, cut-off 250) was −10 and the output value ([1]; sample C4005.01.2, cut-off 250) was −12. For the same compound, the output value [1, 11] was −466.

With `CCOc1cc2ncc(C#N)c(Nc3ccc(OCc4ccccn4)c(Cl)c3)c2cc1NC(=O)/C=C/CN(C)C` [Neratinib, neratinib] the output value ([2]; sample C125, cut-off 500) was 54, the output value ([2]; sample C129, cut-off 500) was 247 and the output value ([2]; sample C133, cut-off 500) was 161. It also gave an output value ([2]; sample C148, cut-off 500) of 38, an output value ([2]; sample C152, cut-off 500) of 482 and an output value ([2]; sample C197, cut-off 500) of 590. For the same compound, the output value ([2]; sample C199, cut-off 500) was 296, the output value ([2]; sample C201, cut-off 500) was 110 and the output value ([2]; sample C213, cut-off 500) was 42. It also gave an output value ([2]; sample C219, cut-off 500) of 92, an output value ([2]; sample C223, cut-off 500) of 666 and an output value ([2]; sample C230, cut-off 500) of 506. The output value ([2]; sample C251, cut-off 500) was 106, the output value ([2]; sample C270, cut-off 500) was 962 and the output value ([2]; sample C276, cut-off 500) was 166. It also gave an output value ([2]; sample C307, cut-off 500) of 38, an output value ([2]; sample C371, cut-off 500) of 460 and an output value ([2]; sample C434, cut-off 500) of 35. For the same compound, the output value ([3]; sample C125, cut-off 500) was −19, the output value ([3]; sample C129, cut-off 500) was 48 and the output value ([3]; sample C133, cut-off 500) was 65. For the same compound, the output value ([3]; sample C148, cut-off 500) was −11, the output value ([3]; sample C152, cut-off 500) was 198 and the output value ([3]; sample C197, cut-off 500) was 313. It also gave an output value ([3]; sample C199, cut-off 500) of 283, an output value ([3]; sample C201, cut-off 500) of −12 and an output value ([3]; sample C213, cut-off 500) of 41. For the same compound, the output value ([3]; sample C219, cut-off 500) was −48, the output value ([3]; sample C223, cut-off 500) was 284 and the output value ([3]; sample C230, cut-off 500) was 289. The output value ([3]; sample C251, cut-off 500) was 16, the output value ([3]; sample C270, cut-off 500) was 301 and the output value ([3]; sample C276, cut-off 500) was 11. The output value ([3]; sample C307, cut-off 500) was 41, the output value ([3]; sample C371, cut-off 500) was 270 and the output value ([3]; sample C434, cut-off 500) was −1.
